According to PMC6152408, “Interaction of Flavonoids from Woodwardia unigemmata with Bovine Serum Albumin (BSA): Application of Spectroscopic Techniques and Molecular Modeling Methods” (Molecules : A Journal of Synthetic Chemistry and Natural …, 2017):

Target: T1, bovine serum albumin (BSA) (Bos taurus, UniProt P02769)
T1 construct: gene ALB; commercial fatty acid-free native BSA (Shanghai Shenhang Biotechnology), mature, 583 residues, untagged; PDB 4JK4 used only for docking
Test: intrinsic fluorescence quenching (ex […] nm)
Type: binding
Conditions: 297 K, pH 7.4, 0.05 M Tris-HCl, 0.1 M NaCl, 5 µM BSA; double-log

T1 sequence (P02769 25-607): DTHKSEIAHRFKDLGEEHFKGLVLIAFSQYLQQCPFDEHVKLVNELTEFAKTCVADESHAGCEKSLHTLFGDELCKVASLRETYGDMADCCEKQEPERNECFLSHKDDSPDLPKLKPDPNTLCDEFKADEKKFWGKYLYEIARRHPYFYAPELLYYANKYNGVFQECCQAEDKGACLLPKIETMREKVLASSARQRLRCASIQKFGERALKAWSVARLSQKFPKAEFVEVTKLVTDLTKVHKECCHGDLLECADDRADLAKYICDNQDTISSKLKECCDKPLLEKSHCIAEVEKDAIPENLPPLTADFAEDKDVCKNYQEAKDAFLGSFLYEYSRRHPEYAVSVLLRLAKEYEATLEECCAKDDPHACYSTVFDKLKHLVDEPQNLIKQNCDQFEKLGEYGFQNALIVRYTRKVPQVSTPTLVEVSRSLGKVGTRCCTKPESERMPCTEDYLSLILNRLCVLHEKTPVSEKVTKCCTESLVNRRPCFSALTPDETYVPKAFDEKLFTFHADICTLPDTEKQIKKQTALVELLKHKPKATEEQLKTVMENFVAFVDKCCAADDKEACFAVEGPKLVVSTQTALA

Row | Compound | Kb (×10^5 L.mol^-1)
1 | CC(=O)O[C@@H]1[C@@H](O)[C@@H](O)[C@H](Oc2cc(O)c3c(=O)c(O[C@@H]4O[C@@H](C)[C@H](OC(C)=O)[C@@H](OC(C)=O)[C@H]4O)c(-c4ccc(O)cc4)oc3c2)O[C@H]1C [compound 1, kaempferol3-O-α-L-(3,4-O-di-acetyl) rhamopyranoside-7-O-α-L-(4-O-acetyl) rhamnopyranoside] | 0.41 × 10^5 L·mol^−1
2 | CC(=O)O[C@@H]1[C@@H](OC(C)=O)[C@@H](O)[C@H](Oc2c(-c3ccc(O)cc3)oc3cc(O[C@@H]4O[C@@H](C)[C@H](O)[C@@H](O)[C@H]4O)cc(O)c3c2=O)O[C@H]1C [compound 2, crassirhizomoside B] | 0.57 × 10^5 L·mol^−1
3 | CC(=O)O[C@@H]1[C@@H](O)[C@H](C)O[C@@H](Oc2c(-c3ccc(O)cc3)oc3cc(O[C@@H]4O[C@@H](C)[C@H](O)[C@@H](O)[C@H]4O)cc(O)c3c2=O)[C@@H]1O [compound 4, kaempferol 3-O-α-L-(3-O-acetyl) rhamopyranoside-7-O-α-L-rhamnopyranoside] | 1.06 × 10^5 L·mol^−1
4 | CC(=O)O[C@H]1[C@H](Oc2c(-c3ccc(O)cc3)oc3cc(O[C@@H]4O[C@@H](C)[C@H](O)[C@@H](O)[C@H]4O)cc(O)c3c2=O)O[C@@H](C)[C@H](O)[C@H]1O [compound 5, kaempferol 3-O-α-L-(2-O-acetyl) rhamopyranoside-7-O-α-L-rhamnopyranoside] | 0.96 × 10^5 L·mol^−1
